# Test results published in patent US12408667B2, “Herbicidal mixtures comprising isoxaflutole, pyroxasulfone and an imidazolinone herbicide; and their use in soybean and cotton cultures” (BASF SE, priority 2018, dated 2025).
# Tested on: GALAP (Galium aparine)
# Test: greenhouse experiment, herbicidal action, evaluated on a scale from 0 to 100
# Type: in vivo
# Conditions: pre-emergence greenhouse
# Source text: Synergism can be described as an interaction where the combined effect of two or more compounds is greater than the sum of the individual effects of each of the compounds. The presence of a synergistic effect in terms of percent control, between two mixing partners (X and Y) can be calculated using the Colby equation (Colby, S. R., 1967, Calculating Synergistic and Antagonistic Responses in Herbicide Combinations, Weeds, 15, 21-22): E=X+Y−XY/100
# When the observed combined control effect is greater than the expected (calculated) combined control effect (E), then the combined effect is synergistic.
# The culture containers used were plastic flowerpots containing loamy sand with approximately 3.0% of humus as the substrate. The seeds of the test plants were sown separately for each species. For pre-emergence treatment, the active ingredients, which had been suspended or emulsified in water, were applied directly after sowing by means of finely distributing nozzles. The containers were irrigated gently to promote germination and growth and subsequently covered with transparent plastic hoods until the plants had rooted. This cover caused uniform germination of the test plants, unless this had been impaired by the active ingredients. […] During this time, the plants were tended, and their response to the individual treatments was evaluated. […]
smiles,measurement,setting,value
"CS(=O)(=O)c1cc(C(F)(F)F)ccc1C(=O)c1cnoc1C1CC1 [Isoxaflutole, isoxaflutole]","Herbicidal action against GALAP, Found","Isoxaflutole 12.5 g/ha alone, 20 days, scale 0 to 100",0
same,"Herbicidal action against GALAP, Found","Isoxaflutole 25 g/ha alone, test period 20 days, scale 0 to 100 (100 = no emergence or complete destruction)",0
